In ChEMBL document CHEMBL1155570, “5'-Methoxyhydnocarpin-D and pheophorbide A: Berberis species components that potentiate berberine growth inhibition of resistant Staphylococcus aureus” (J Nat Prod, 2000) one finds Activity data, which are given here for ten compounds.

Calls of active or inactive are those of the source. No cut-off for these calls is given here.

The first experiment concerns Staphylococcus aureus. The experiment can be described thus: Antimicrobial activity against Staphylococcus aureus 4222 with norA KLE 820(3) mutation. Type of experiment: functional, organism-based.
For `COc1ccc2c(c1O)-c1c(OC)c(OC)cc3c1[C@H](C2)N(C)CC3`, the outcome was inactive.
With `COc1cc2c(cc1OC)C1Cc3cc(OC)c(OC)cc3[C@H](C2)N1C`, the result was inactive.
Regarding `CN1CCc2cc3c(cc2C(=O)Cc2cc4c(cc2C1)OCO4)OCO3`, the result was inactive.
For `COc1cc2c(cc1OC)-c1c(OC)c(OC)cc3c1[C@H](C2)N(C)CC3`, the result was inactive.
For the compound `COc1ccc2c(c1OC)-c1c(OC)c(OC)cc3c1[C@H](C2)[N+](C)(C)CC3`, the result was inactive.
Still for that read-out and setting: in the case of `COc1cc2c(cc1O)[C@@H]1Cc3cc(O)c(OC)cc3C(C2)N1C` it was “inactive”; in that of `COc1cc2c(cc1OC)[C@@H]1Cc3ccc(OC)c(OC)c3CN1CC2`, “inactive”; in that of `COc1ccc2c(c1OC)CN(C)CCc1cc3c(cc1C(=O)C2)OCO3`, “inactive”.
Regarding `COc1ccc(CC2c3cc(OC)c(OC)cc3CCN2C)cc1OC` (stereo not given), the result was inactive.

The subject of a further experiment is Staphylococcus aureus. The experiment can be described thus: Antimicrobial activity against Staphylococcus aureus 4222 with norA KLE mutation at 120 to 140 ug/ml. It is filed as functional, organism-based.
On to `COc1ccc2cc3[n+](cc2c1OC)CCc1cc2c(cc1-3)OCO2`, for which the result was Active.
